Experimental data: patent publication US12012410B2, “Substituted pyrazolo[1,5-a]pyrazines for spinal muscular atrophy” (REBORNA BIOSCIENCES, INC., priority 2018, dated 2024)
Where a name gives a salt, the structure may show the parent alone.

Each molecule was assayed on FL-SMN mRNA (SMN transcript containing exons 7 and 8) (assay: Live-cell assay to measure changes in FL-SMN mRNA levels (qPCR) after exposure to the compounds). Conditions: fibroblasts derived from patients SMA (GM03813); 24 hours incubation.
Type: cell-based, human
Procedure: In this example, each test compound was administered to cultured cells, and changes in the expression levels of mRNA transcripts of SMN, i.e., FL-SMN containing exons 7 and 8 and Delta7 with exon 7 skipped, were examined using PCR.
Fibroblasts derived from patients SMA (GM03813) (Coriell Cell Repositories) were cultured with passages using DMEM (High Glucose) (Life Technologies) supplemented with 10% FBS (Life Technologies). Cells were seeded in tissue-culture-treated 96-well plates (Corning) at 1.5 or 0.5×10^4 cells/well in 100 μL of medium. The cells were incubated in 5% CO2 for 6 hours, and the medium was replaced with 100 μL of medium (with DMSO, 0.1% final concentration) containing each of the compounds given in the Examples. After additional incubation for 24 hours under the same conditions, the cells were washed once with D-PBS(—) (Wako) and 25 μL/well of the lysis solution (with gDNA Remove) contained in the SuperPrep (registered trademark) Cell Lysis & RT Kit for qPCR (Toyobo life science) was added according to the manufacturer's instructions so that the cells were lysed and the genomic DNA was degraded. Furthermore, 5 μL of the STOP solution (with RNase Inhibitor) contained in the kit was added to provide RNA-containing solutions. Six microliters of the RNA-containing solutions were each mixed with 14 μL of a reverse transcription solution containing transcriptase together with dNTP, random primers and an oligodT primer. Reverse transcription was performed at 37° C. (15 min), 50° C. (5 min), and 98° C. (5 min), to give total cDNAs. The total cDNAs were diluted 30-fold with Ultra-pure water (Invitrogen) to measure the expression levels of FL-SMN, delta7, and GAPDH. For quantitative PCR (qPCR), a PCR solution was prepared according to the instructions of the manufacturer of the THUNDERBIRD (registered trademark) Probe qPCR Mix (Toyobo life science). Five microliters of the diluted total cDNA solutions and oligo DNA standard solutions, each containing either 001-Standard FL-SMN (SEQ ID NO. 1) or 002-Standard delta7 (SEQ ID NO. 2), were each mixed with 10 μL of each of the PCR solutions containing a qPCR probe, primers, and PCR enzyme. […] The oligoDNA standard solutions were prepared as those containing either of 5×10^8, 5×10^7, 5×10^6, 5×10^5, 5×10^4, 5×10^3, 5×10^2, 5×10, 5, or 0 copies. For the oligo DNA standards, primers, and probes, oligonucleotides synthesized by Integrated DNA Technologies, Inc. (IDT) were used. […] FIGS. 3B and 3D show their detection mechanisms. The final concentrations of the primers and probes added were 0.4 μM and 0.15 μM, respectively. The qPCR was performed using the following conditions on a ViiA7 instrument (Applied Biosystems): first stage: 95° C. (1 min)→second stage: 95° C. (15 sec)→third stage: 60° C. (1 min)→40 repeated cycles of the second and third stages. The GAPDH mRNA was used as the internal control, and the commercially available 20×gene expression PCR assay (Life Technologies, 4326317E, Hs99999905_ml) and Standard GAPDH (SEQ ID NO. 7) (see FIG. 1) was used to determine the number of copies of this gene. The measurement values obtained for the samples to be measured were standardized against the respective value obtained for GAPDH.
Using the above-mentioned assays, the activities of the compounds of the Examples were evaluated. Specifically, the percentages of the FL-SMN and delta7 values obtained using DMSO without the compounds and standardized against GAPDH were set as 100% and those of the FL-SMN and delta7 values obtained at the time of administration of the compounds and standardized against GAPDH were calculated. […]
`Cc1cn2nc(-c3nc4cc(F)c(C5CCN(C)CC5)cc4c(=O)[nH]3)cc2c(C)n1` [Example 1, 2-(4,6-Dimethylpyrazolo[1,5-a]pyrazin-2-yl)-7-fluoro-6-(1-methylpiperidin-4-yl)quinazolin-4(3H)-one] was tested, and the “Percentage of increase (FL-SMN mRNA standardized against GAPDH, DMSO control set as 100%)” value was “**** (equal to or higher than 180%)”.
`Cc1cn2nc(-c3nc4ccc(C5CCN(C)CC5)cc4c(=O)[nH]3)cc2c(C)n1` [Example 2, 2-(4,6-Dimethylpyrazolo[1,5-a]pyrazin-2-yl)-6-(1-methylpiperidin-4-yl)quinazolin-4(3H)-one] was tested, and the “Percentage of increase (FL-SMN mRNA standardized against GAPDH, DMSO control set as 100%)” value was “**** (equal to or higher than 180%)”.
For `Cc1cn2nc(-c3nc4c(F)cc(C5CCN(C)CC5)cc4c(=O)[nH]3)cc2c(C)n1` [Example 3, 2-(4,6-Dimethylpyrazolo[1,5-α]pyrazin-2-yl)-8-fluoro-6-(1-methylpiperidin-4-yl)quinazolin-4(3H)-one], the “Percentage of increase (FL-SMN mRNA standardized against GAPDH, DMSO control set as 100%)” value was “**** (equal to or higher than 180%)”.
For `Cc1cn2nc(-c3nc4ccc(C5CCN(C)CC5)c(F)c4c(=O)[nH]3)cc2c(C)n1` [Example 4, 2-(4,6-Dimethylpyrazolo[1,5-α]pyrazin-2-yl)-5-fluoro-6-(1-methylpiperidin-4-yl)quinazolin-4(3H)-one], the “Percentage of increase (FL-SMN mRNA standardized against GAPDH, DMSO control set as 100%)” value was “**** (equal to or higher than 180%)”.
For `CCc1nc(C)cn2nc(-c3nc4ccc(N5CCN(C)CC5)cc4c(=O)[nH]3)cc12` [Example 5, 2-(4-Ethyl-6-methylpyrazolo[1,5-α]pyrazin-2-yl)-6-(4-methylpiperazin-1-yl)quinazolin-4(3H)-one], the “Percentage of increase (FL-SMN mRNA standardized against GAPDH, DMSO control set as 100%)” value was “*** (equal to or higher than 150% but lower than 180%)”.
For `Cc1cn2nc(-c3nc4ccc(N5CCN(C)CC5)cc4c(=O)[nH]3)cc2c(C)n1` [Example 6, 2-(4,6-Dimethylpyrazolo[1,5-α]pyrazin-2-yl)-6-(4-methylpiperazin-1-yl)quinazolin-4(3H)-one dihydrochloride], the “Percentage of increase (FL-SMN mRNA standardized against GAPDH, DMSO control set as 100%)” value was “**** (equal to or higher than 180%)”.
With `Cc1cn2nc(-c3nc4cc(F)c(N5CCN(C)CC5)cc4c(=O)[nH]3)cc2c(C)n1` [Example 7, 2-(4,6-Dimethylpyrazolo[1,5-α]pyrazin-2-yl)-7-fluoro-6-(4-methylpiperazin-1-yl)quinazolin-4(3H)-one] the “Percentage of increase (FL-SMN mRNA standardized against GAPDH, DMSO control set as 100%)” value was “*** (equal to or higher than 150% but lower than 180%)”.
`Cc1cn2cc(-c3ccc4nc(C5CCN(C)CC5)[nH]c(=O)c4c3)ccc2n1` [Example 9, 6-(2-Methylimidazo[1,2-α]pyridin-6-yl)-2-(1-methylpiperidin-4-yl)quinazolin-4(3H)-one] was tested, and the “Percentage of increase (FL-SMN mRNA standardized against GAPDH, DMSO control set as 100%)” value was “**** (equal to or higher than 180%)”.
For `Cc1cn2cc(-c3ccc4nc(C5CCN(C)CC5)[nH]c(=O)c4c3)cc(F)c2n1` [Example 10, 6-(8-Fluoro-2-methylimidazo[1,2-α]pyridin-6-yl)-2-(1-methylpiperidin-4-yl)quinazolin-4(3H)-one], the “Percentage of increase (FL-SMN mRNA standardized against GAPDH, DMSO control set as 100%)” value was “**** (equal to or higher than 180%)”.
For `Cc1cc2oc(-c3nc4ccc(N5CCN(C)CC5)cc4c(=O)[nH]3)cc2c(C)n1` [Example 11, 2-(4,6-Dimethylfuro[3,2-c]pyridin-2-yl)-6-(4-methylpiperazin-1-yl)quinazolin-4(3H)-one], the “Percentage of increase (FL-SMN mRNA standardized against GAPDH, DMSO control set as 100%)” value was “*** (equal to or higher than 150% but lower than 180%)”.
In the case of `CCN1CCN(c2ccc3nc(-c4cc5c(C)nc(C)cn5n4)[nH]c(=O)c3c2)CC1` [Example 12, 2-(4,6-Dimethylpyrazolo[1,5-a]pyrazin-2-yl)-6-(4-ethylpiperazin-1-yl)quinazolin-4(3H)-one], the “Percentage of increase (FL-SMN mRNA standardized against GAPDH, DMSO control set as 100%)” value is reported as “**** (equal to or higher than 180%)”.
In the case of `Cc1nc2ccc(-c3ccc4nc(C5CCN(C)CC5)[nH]c(=O)c4c3)cc2o1` [Example 13, 6-(2-Methyl-1,3-benzoxazol-6-yl)-2-(1-methylpiperidin-4-yl)quinazolin-4(3H)-one], the “Percentage of increase (FL-SMN mRNA standardized against GAPDH, DMSO control set as 100%)” value is reported as “**** (equal to or higher than 180%)”.
In the case of `Cc1nc2ccc(-c3ccc4nc(C5CCN(C)CC5)[nH]c(=O)c4c3)cc2s1` [Example 14, 6-(2-Methyl-1,3-benzothiazol-6-yl)-2-(1-methylpiperidin-4-yl)quinazolin-4(3H)-one], the “Percentage of increase (FL-SMN mRNA standardized against GAPDH, DMSO control set as 100%)” value is reported as “*** (equal to or higher than 150% but lower than 180%)”.
`Cc1cn2cc(-c3ccc4nc(C5CCN(C)CC5)[nH]c(=O)c4c3)cc2cn1` [Example 15, 2-(1-Methylpiperidin-4-yl)-6-(3-methylpyrrolo[1,2-α]pyrazin-7-yl)quinazolin-4(3H)-one] was tested, and the “Percentage of increase (FL-SMN mRNA standardized against GAPDH, DMSO control set as 100%)” value was “**** (equal to or higher than 180%)”.
With `Cc1cn2nc(-c3nc4ccc(N5CCNCC5)cc4c(=O)[nH]3)cc2c(C)n1` [Example 16, 2-(4,6-Dimethylpyrazolo[1,5-α]pyrazin-2-yl)-6-(piperazin-1-yl)quinazolin-4(3H)-one dihydrochloride] the “Percentage of increase (FL-SMN mRNA standardized against GAPDH, DMSO control set as 100%)” value was “**** (equal to or higher than 180%)”.
For `Cc1cn2cc(-c3ccc4nc(C5CCN(C)CC5)[nH]c(=O)c4c3)cc(Cl)c2n1` [Example 17, 6-(8-Chloro-2-methylimidazo[1,2-α]pyridin-6-yl)-2-(1-methylpiperidin-4-yl)quinazolin-4(3H)-one], the “Percentage of increase (FL-SMN mRNA standardized against GAPDH, DMSO control set as 100%)” value was “*** (equal to or higher than 150% but lower than 180%)”.
In the case of `Cc1nc2c(F)cc(-c3ccc4nc(C5CCN(C)CC5)[nH]c(=O)c4c3)cc2o1` [Example 18, 6-(4-Fluoro-2-methyl-1,3-benzoxazol-6-yl)-2-(1-methylpiperidin-4-yl)quinazolin-4(3H)-one], the “Percentage of increase (FL-SMN mRNA standardized against GAPDH, DMSO control set as 100%)” value is reported as “**** (equal to or higher than 180%)”.
`Cc1cn2cc(-c3cc(C)c4nc(C5CCN(C)CC5)[nH]c(=O)c4c3)ccc2n1` [Example 19, 8-Methyl-6-(2-methylimidazo[1,2-α]pyridin-6-yl)-2-(1-methylpiperidin-4-yl)quinazolin-4(3H)-one] was tested, and the “Percentage of increase (FL-SMN mRNA standardized against GAPDH, DMSO control set as 100%)” value was “**** (equal to or higher than 180%)”.
With `Cc1cn2cc(-c3ccc4nc(C5CCN(C)CC5)[nH]c(=O)c4c3)cc2c(C)n1` [Example 20, 6-(1,3-Dimethylpyrrolo[1,2-α]pyrazin-7-yl)-2-(1-methylpiperidin-4-yl)quinazolin-4(3H)-one] the “Percentage of increase (FL-SMN mRNA standardized against GAPDH, DMSO control set as 100%)” value was “**** (equal to or higher than 180%)”.
In the case of `Cc1cn2nc(-c3nc4c(C)cc(N5CCN(C)CC5)cc4c(=O)[nH]3)cc2c(C)n1` [Example 21, 2-(4,6-Dimethylpyrazolo[1,5-α]pyrazin-2-yl)-8-methyl-6-(4-methylpiperazin-1-yl)quinazolin-4(3H)-one], the “Percentage of increase (FL-SMN mRNA standardized against GAPDH, DMSO control set as 100%)” value is reported as “**** (equal to or higher than 180%)”.
`COc1cc(-c2ccc3nc(C4CCN(C)CC4)[nH]c(=O)c3c2)cn2cc(C)nc12` [Example 22, 6-(8-methoxy-2-methylimidazo[1,2-a]pyridine-6-yl)-2-(1-methylpiperidine-4-yl) kinazoline-4 (3H)-one] was tested, and the “Percentage of increase (FL-SMN mRNA standardized against GAPDH, DMSO control set as 100%)” value was “**** (equal to or higher than 180%)”.
In the case of `Cc1cn2cc(-c3ccc4nc(C5CCN(C)CC5)[nH]c(=O)c4c3)cc(C)c2n1` [Example 23, 6-(2,8-dimethylimidazo[1,2-a]pyridine-6-yl)-2-(1-methylpiperidin-4-yl) kinazoline-4 (3H)—one], the “Percentage of increase (FL-SMN mRNA standardized against GAPDH, DMSO control set as 100%)” value is reported as “*** (equal to or higher than 150% but lower than 180%)”.
